Laboratory results from patent publication US20090270342A1, “IMMUNOREGULATORY AGENT” (priority 2006, published 2009).

System: anti-Cry j 1-IgE, IgG1 in serum
Assay: Anti-Cry j 1 antibody in serum of Cry j 1/alum-sensitized mice (Experiment 5)
Assay type: in vivo
Conditions: for Anti-Cry J 1-IgG1 in serum / Anti-Cry J 1-IgG1 in serum, relative to control: two weeks after the second sensitization
Procedure: In order to investigate the effect of lactosucorse on systemic immunity, antibody level in serum was measured. Similarly as in Experiment 1, female BALB/c mice (six weeks old) were preliminary reared for one week on “AIN-93G”, the same standard purified diet as used in Experiment 1. Successively, “NYU-KA OLIGO 700”, a saccharide composition comprising 71.4% (w/w), on a dry solid basis, of lactosucrose commercialized by Hayashibara Shoji Inc., Okayama, Japan, was incorporated into the above purified diet, in which corn starch equal to the amount of the saccharide composition comprising lactosucrose had been removed, to give a lactosucrose content of 2% (w/w) or 5% (w/w), and five to seven mice/group were allowed to ingest the resulting test diet freely. Mice, allowed to ingest “AIN-93G”, as the standard purified diet, were used as control. At 10 days after from starting the administration of the test diet, mice were sensitized to antigen by administrating 20 μg of ovalbumin (OVA) (grade V, commercialized by Sigma Corporation) as antigen and 4.5 mg of “IMJECT®”, alum commercialized by Pierce ThermoScientific as adjuvant, into the peritoneal cavity. Successively, 15 days after from the first sensitization, the second sensitization was carried out by the same procedure. The blood was collected from caudal vein of mice at one, two, and three weeks after from the second sensitization, the serum was collected by centrifugation, and the amount of IgE to OVA was measured by EIA. In the cases of IgG1 and IgG2a, the amount of antibody was measured using serum collected at two weeks after from the second sensitization. The IgE and IgG2a titers were measured by capture EIA and IgG1 titer was measured by indirect EIA. Each titer was calculated by calibration curve prepared by using anti-OVA mouse serum (IgE: 1.760 U/ml, IgG1: 128,000 U/ml, IgG2a: 7,040 u/ml) as a standard serum. The amounts of IgE at one, two, or three weeks after from the second sensitization are in Table 5, and the amounts of IgG1 and IgG2a of two weeks after from the second sensitization are in Table 6. The percentages in parentheses in tables mean a relative value to the antibody concentration in serum of the control mice.
In order to investigate the usefulness of lactosucrose ingestion for preventing or treating allergy to cedar pollen, the effect of lactosucrose for suppressing the production of IgE, caused by Cry j 1, a cedar pollen allergen, was investigated as follows. Except for using 20 μg of “PURIFIED CEDAR POLLEN ALLERGEN Cry j 1”, Cry j 1 commercialized by Seikagaku Corporation, Tokyo, Japan, as a substitute for OVA, the experiment was carried out by the same procedure as in Experiment 4, and the amount of anti-Cry j 1-IgE was measured at one and two weeks after the second sensitization. Further, the amount of anti-Cry j 1-IgG1 was also measured at two weeks after the second sensitization. The amounts of anti-Cry j 1-IgE and anti-Cry j 1-IgG1 were measured by the same procedure as in Experiment 4 except for using “PURIFIED CEDAR POLLEN ALLERGEN Cry j 1-Biotin”, commercialized by Seikagaku Corporation, Tokyo, Japan, as a solid phase. The results for IgE and IgG1 are in Tables 7 and 8, respectively.

Question: `OC[C@H]1O[C@@H](O[C@H]2[C@H](O)[C@@H](O)[C@@H](O[C@]3(CO)O[C@H](CO)[C@@H](O)[C@@H]3O)O[C@@H]2CO)[C@H](O)[C@@H](O)[C@H]1O` [Lactosucrose, β-D-galactosyl-(1,4)-α-D-glucosyl-(1,2)-β-D-fructoside] was tested. Which “Anti-Cry j 1-IgE in serum” value (Lactosucrose 2% (w/w) diet, one week after the 2nd sensitization) did it give?
Answer: 351 ± 277 U/ml

Question: What about the “Anti-Cry j 1-IgE in serum” value (Lactosucrose 2% (w/w) diet, two weeks after the 2nd sensitization) of the same compound?
Answer: 239 ± 180 U/ml

Question: What about the “Anti-Cry J 1-IgG1 in serum” value (Lactosucrose 2% (w/w) diet) of the same compound?
Answer: 10.3 ± 6.01 ×10^4 U/ml

Question: What about the “Anti-Cry j 1-IgE in serum, relative to control” value (Lactosucrose 2% (w/w), one week after the 2nd sensitization) of the same compound?
Answer: (44%)

Question: And the “Anti-Cry j 1-IgE in serum, relative to control” value (Lactosucrose 2% (w/w), one week after the 2nd sensitization, listed as lactosucrose)?
Answer: 44%

Question: And the “Anti-Cry j 1-IgE in serum, relative to control” value (Lactosucrose 2% (w/w), two weeks after the 2nd sensitization)?
Answer: (23%)

Question: And the “Anti-Cry j 1-IgE in serum, relative to control” value (Lactosucrose 2% (w/w), two weeks after the 2nd sensitization, listed as lactosucrose)?
Answer: 23%

Question: What about the “Anti-Cry J 1-IgG1 in serum, relative to control” value (Lactosucrose 2% (w/w)) of the same compound?
Answer: (80%)

Question: What about the “Anti-Cry j 1-IgE in serum” value (Lactosucrose 5% (w/w) diet, one week after the 2nd sensitization) of the same compound?
Answer: 620 ± 157 U/ml

Question: And the “Anti-Cry j 1-IgE in serum” value (Lactosucrose 5% (w/w) diet, two weeks after the 2nd sensitization)?
Answer: 404 ± 114 U/ml

Question: What about the “Anti-Cry J 1-IgG1 in serum” value (Lactosucrose 5% (w/w) diet) of the same compound?
Answer: 7.51 ± 2.89 ×10^4 U/ml

Question: And the “Anti-Cry j 1-IgE in serum, relative to control” value (Lactosucrose 5% (w/w), one week after the 2nd sensitization)?
Answer: (77%)

Question: What about the “Anti-Cry j 1-IgE in serum, relative to control” value (Lactosucrose 5% (w/w), two weeks after the 2nd sensitization) of the same compound?
Answer: (38%)

Question: And the “Anti-Cry J 1-IgG1 in serum, relative to control” value (Lactosucrose 5% (w/w))?
Answer: (58%)
